Values quoted from earlier work in patent publication US9993445B1, “Oral solution comprising atomoxetine hydrochloride and methods thereof” (TAHO Pharmaceuticals Ltd., priority 2016, dated 2018).
Structures can show the parent of a compound that is named as a salt.

Conditions: room temperature

CNCCC(Oc1ccccc1C)c1ccccc1 (single isomer, unassigned; (-)) [Atomoxetine hydrochloride, (−)-N-methyl-3-phenyl-3 (o-tolyloxy) propylamine]
soluble in water: 27.8 mg/mL
